Data published in patent publication US20100215632A1, “BIOMARKERS OF SIRTUIN ACTIVITY AND METHODS OF USE THEREOF” (Sirtris Pharmaceuticals, Inc., priority 2007, published 2010).

Key:
liver = experiment: Overall pattern of change in gene expression in 3 day liver of diet-induced obesity mice (gene chip); assay type: in vivo, mouse; settings: 1000 mg/kg oral once per day
Excerpt: A mouse model of diet induced obesity was used to identify sirtuin biomarkers in mice following dosing with two chemically unrelated sirtuin activators. Obesity and type II diabetes are being intensively studied in animal models, particularly the mouse. One such model is commonly referred to as the diet-induced obesity (DIO) model. Typically, C57BL/6 males are fed a high fat diet for 8 to 12 weeks and, as a result, become obese, mildly to moderately hyperglycemic, and glucose intolerant. These mice are then used to study the genetic and physiological mechanisms of obesity and type II diabetes.
(§1) 51 C57BL/6 mice are started on a 60% kcal high fat diet. Mice are weighed once a week for approximately 7 weeks on the high fat diet until the average body weight of the DIO mice is 40 grams. The study is divided into 3 groups of […] mice per group with mean average body weight/cage. Animals are dosed orally once per day as follows: Resveratrol at 1000 mg/kg in 2% HPMC/0.2% DOSS, Compound 1 at 100 mg/kg in 2% HPMC/0.2% DOSS and vehicle control animals 2% HPMC/0.2% DOSS. Concentration of compound is adjusted to proper dose according to the mean weight for each group weekly. Mice are typically dosed in the a.m. and are only dosed in the p.m. on days following a 16 hour fast. Each group is split up into 3 sub-groups for a 3, 16 and 42 day collection time point.
Once dosing starts data collections are as follow. Day 3: collect tissues, blood and glucose from 6 mice from each group 1 hour post dose. Also take fed glucose from remaining groups. Day 13: Intraperitoneal glucose tolerance test (IPGTT). Day 16: collect tissues, blood and glucose from 6 mice from each group 1 hour post dose. Also take fed glucose from remaining groups. Day 28: Fasted glucose. […]
Total RNA isolated from either Example 2 above (mouse tissues following in vivo treatment with either Compound 1 or resveratrol) or Example 3 above (human WBC following ex vivo treatment with either Compound 2 or resveratrol) was analyzed using an Affymetrix GeneChip specific to either the mouse or human genome. […]

FGF21 = FGF21 expression in liver of diet-induced obesity mice (microarray); assay type: in vivo, mouse; settings: 3 day liver, oral once per day; resveratrol 1000 mg/kg, Compound 1 100 mg/kg
Method: as §1, with “As with Example 2, the diet-induced obesity (D10) model was used. 51” for “51”, “D10” for “DIO”, “On day 3 of dosing, liver tissue” for “Each group”, “collected from the mice 1 hour post dose.” for “split up into 3 sub-groups for a 3, 16 and 42 day collection time point.”
The liver is isolated as in Example 2. Total RNA from the liver sample is extracted with standard techniques (e.g. PureLink Micro-to-Midi Total RNA Purification System, Invitrogen cat. #12183-018).
Expression of multiple genes was determine by microarray as in Example 4.

Oc1ccc(C=Cc2cc(O)cc(O)c2)cc1 [resveratrol, 3,5,4′-trihydroxystilbene]
activity of PGC1a and PPAR family members (liver): increased activity of PGC1a and PPAR family members | activity of hepatic transcription factors involved in glucose homeostasis and the stress response pathway (liver): increased activity of hepatic transcription factors | inflammatory signaling (pattern of gene expression) (liver): decreased inflammatory signaling | FGF21 mRNA levels versus control mice (FGF21): markedly higher

O=C(Nc1ccccc1-c1cn2c(CN3CCNCC3)csc2n1)c1cnc2ccccc2n1 [Compound 1]
FGF21 mRNA levels versus control mice (FGF21): markedly higher
